Measured values taken from US20190202836A1, “SELECTIVE DUAL INHIBITORS OF PI3 DELTA AND GAMMA PROTEIN KINASES” (Rhizen Pharmaceuticals SA, priority 2014, published 2019).

Columns and labels:
PI3Kδ = PI3Kδ (Homo sapiens, UniProt O00329); test: Assay 4: anti-FcεR1 induced CD63 expression in basophils from human whole blood; format: cell-based; set-up: endogenous in cells; host or cells: basophils in human whole blood; conditions: n=1, read-out: EC50 for FcεR1 (PI3K δ), CD63 positive basophils
Protocol: PI3K δ and γ signaling in basophils manifested by an alteration of anti-FcεR1 or fMLP induced CD63 expression is a useful pharmacodynamic marker determined using the Flow2CAST® kit (Buhlmann Laboratories, Switzerland). The test procedure involves the following steps: • Mix the anti-coagulated blood sample by inverting the venipuncture tube several times; • Prepare fresh and pyrogen-free 3.5 ml polypropylene or polystyrene tubes suitable for Flow Cytometry measurements; • Add 49 μl of patient's whole blood to each tube; • Add 1 μl of 10% DMSO (background) or test compound (10% DMSO) to the assigned tubes and mix gently. Incubate at room temperature for 15 minutes; • Pipet 50 μl of the Stimulation buffer (background) or anti-FcεRI Ab or fMLP to each tube; • Add 100 μl of Stimulation Buffer to each tube; • Mix gently. Add 20 μl Staining Reagent (1:1 mix of FITC-CD63 and PE-CCR3) to each tube; • Mix gently, cover the tubes and incubate for 15 minutes at 37° C. in a water bath. […]
Percent CD63 positive cells within the gated basophil population were determined in different treatment groups and normalized to vehicle control.

PI3K beta = target: T1, PI3K beta (Mus musculus, UniProt Q8BTI9); test: Assay 4A2: LPA induced AktS473 phosphorylation in 3T3 fibroblasts; format: cell-based; conditions: LPA 5 μM, read-out: Cellular IC50 PI3K beta (LPA induced pAKT in 3T3 fibroblasts)
T1 construct: endogenous in cells; host or cells: 3T3 fibroblasts
Protocol: The objective of this study was to determine the effect of Compound A1 on PI3Kβ kinase mediated LPA induced AktS473 phosphorylation in 3T3 fibroblasts.
3T3 cells were treated with desired concentrations of the test compound for 15 minutes. 1 ml of 2× LPA was added such that the final concentration was 5 μM and incubated for 5 minutes.
Media was discarded and washed with 1 ml of ice-cold 1× PBS.
250 μl of cell lysis buffer was added and incubated on ice for 30 minutes.
Samples were centrifuged and supernatant was maintained at −80° C. until analysis.
Samples were analyzed by Western Blotting using pAKT (S473) as the primary and anti-rabbit IgG-HRP as a secondary antibody.
Intensity of the bands was determined using ImageJ 1.42q (NIH, USA) and normalized to Actin (loading control). Data was plotted using GraphPad Prism (Version 5.02).

IL-2 = test: Assay 6A: Cytokine assay in human PBMC, PHA induced IL-2; format: cell-based; conditions: PHA 20 μg/ml, 24 hours, 2-3 independent experiments, read-out: EC50, antigen-induced IL-2
Protocol: The objective of this study was to assess the inhibitory potential of Compound A1 on antigen-induced cytokine release in human PBMC
• Heparinized human whole blood was diluted 1:1 with PBS, over laid on leukocyte separation medium and centrifuged at 400 g for 40 minutes. • Buffy layer was removed and washed with PBS • 0.15*10^6 of PBMCs were plated in 100 μl per well in RPMI media and incubated for 2 h. • 50 μl of 3× of the compound dilution in media was added and incubated for 15 min. • TNFα—induced with 50 μl of LPS in RPMI such that final concentration was 1 μg/ml. Supernatant was collected at 6 hours. • IL-2-induced with 50 μl of PHA in RPMI such that final concentration was 20 μg/ml. Supernatant was collected at 24 hours. • IL-4-induced with 50 μl of PHA in RPMI such that final concentration was 20 μg/ml.
EC50 values were calculated from 2-3 independent experiments.

[1] = Oral pharmacokinetics in rats; format: in vivo; conditions: Rat, 10 mg/kg
Protocol: The oral bioavailability of Compound A1 (free base) was evaluated in rats and mice. The protocol for the pharmacokinetics studies in rat is provided below.
All animals were fasted overnight (12 hours) before dosing and continued till 4.0 hours after administration of test item. Test item formulations were prepared in 1% Tween 80 and 99% media (0.5% Methyl cellulose, 4000cPs, pH 2.2). The blood samples (150 μL from each animal) were collected from the orbital sinus, and placed into a micro centrifuge tube containing disodium EDTA as an anticoagulant. Blood samples were centrifuged immediately with a speed of 1000 g for 10 min at 4° C. and separated plasma samples were frozen at below −80° C. and stored until analysis. The concentrations of test item in all formulations were analyzed by HPLC. The plasma concentrations of test item in all samples were analyzed by LC-MS/MS. Pharmacokinetic parameters (Cmax, AUC0-t, Tmax, and t^1/2) were estimated by using WinNonlin software. Results are provided in Table 3 for Compound A, A1, and Example 128 of WO 2012/151525 in rats and Compound A1 in mice.

[2] = Plasma protein binding (equilibrium dialysis), human; format: in vitro ADME; conditions: pH 7.4, 37° C.
Protocol: Below is provided the procedure for measuring plasma protein binding (using an equilibrium dialysis method). 745 μL of plasma was transferred into a 2 ml micro centrifuge tube. To that 5 μL of Compound A1 (150 μM) was added. Samples were mixed in the table top vortexer for 2 minutes. 50 μL plasma (n=2) was transferred in a pre-labeled 1.5 mL micro centrifuge tube treated as 0 hour sample.
The remaining 650 μL plasma sample were incubated for 30 minutes at 37° C. in a water bath. After 30 minute incubation, 50 μL plasma (n=2) was removed in a pre-labelled 1.5 mL micro centrifuge tube treated as 0.5 hour sample. 200 μL of the plasma sample (n=2) was transferred into the sample chamber which was indicated by the red ring. The red insert was placed into the base plate and 350 μL of buffer was transferred into the buffer chamber. Plates were incubated at 37° C. at approximately 100 RPM on an orbital shaker or 20 RPM on an up-and-down shaker for 4 hours. 50 μL of post dialysis-sample from the buffer and the plasma chambers were transferred into a pre-labelled micro centrifuged tube. 50 μL of plasma was added to the buffer samples and an equal volume of buffer (KH2PO4 Buffer pH 7.4) to the collected plasma samples. 150 μL of methanol containing internal standard (Tolbutamide 250 ng/ml) was added to precipitate the protein and release compound. […]

PI3Kδ, sequence (O00329 whole entry): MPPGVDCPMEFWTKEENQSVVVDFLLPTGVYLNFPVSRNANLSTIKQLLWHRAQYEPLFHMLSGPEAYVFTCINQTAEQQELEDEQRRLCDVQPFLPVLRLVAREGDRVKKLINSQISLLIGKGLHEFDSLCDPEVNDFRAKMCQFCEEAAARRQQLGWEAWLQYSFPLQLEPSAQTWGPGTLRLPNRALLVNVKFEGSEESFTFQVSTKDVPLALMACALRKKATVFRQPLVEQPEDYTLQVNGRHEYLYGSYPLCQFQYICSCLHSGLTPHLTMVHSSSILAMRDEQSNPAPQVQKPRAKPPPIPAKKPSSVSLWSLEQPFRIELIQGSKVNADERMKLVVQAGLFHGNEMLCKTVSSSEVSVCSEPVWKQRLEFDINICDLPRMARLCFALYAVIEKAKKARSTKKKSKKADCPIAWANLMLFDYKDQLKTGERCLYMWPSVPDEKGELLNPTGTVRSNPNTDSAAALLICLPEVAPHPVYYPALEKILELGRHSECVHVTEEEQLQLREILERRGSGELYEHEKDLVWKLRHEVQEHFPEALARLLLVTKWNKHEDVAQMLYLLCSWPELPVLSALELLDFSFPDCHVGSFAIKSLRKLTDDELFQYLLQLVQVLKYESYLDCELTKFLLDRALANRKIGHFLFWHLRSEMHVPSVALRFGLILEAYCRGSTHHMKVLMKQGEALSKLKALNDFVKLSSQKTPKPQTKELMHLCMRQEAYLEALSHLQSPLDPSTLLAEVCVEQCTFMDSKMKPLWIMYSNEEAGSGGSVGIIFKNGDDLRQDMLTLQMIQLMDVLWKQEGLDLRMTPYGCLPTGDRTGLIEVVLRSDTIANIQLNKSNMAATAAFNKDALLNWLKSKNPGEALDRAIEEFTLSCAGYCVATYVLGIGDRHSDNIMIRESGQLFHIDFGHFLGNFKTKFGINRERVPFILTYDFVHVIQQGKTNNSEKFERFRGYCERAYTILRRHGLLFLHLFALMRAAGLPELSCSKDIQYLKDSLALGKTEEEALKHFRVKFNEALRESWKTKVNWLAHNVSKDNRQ
PI3Kδ, sequence (P27986 whole entry partner): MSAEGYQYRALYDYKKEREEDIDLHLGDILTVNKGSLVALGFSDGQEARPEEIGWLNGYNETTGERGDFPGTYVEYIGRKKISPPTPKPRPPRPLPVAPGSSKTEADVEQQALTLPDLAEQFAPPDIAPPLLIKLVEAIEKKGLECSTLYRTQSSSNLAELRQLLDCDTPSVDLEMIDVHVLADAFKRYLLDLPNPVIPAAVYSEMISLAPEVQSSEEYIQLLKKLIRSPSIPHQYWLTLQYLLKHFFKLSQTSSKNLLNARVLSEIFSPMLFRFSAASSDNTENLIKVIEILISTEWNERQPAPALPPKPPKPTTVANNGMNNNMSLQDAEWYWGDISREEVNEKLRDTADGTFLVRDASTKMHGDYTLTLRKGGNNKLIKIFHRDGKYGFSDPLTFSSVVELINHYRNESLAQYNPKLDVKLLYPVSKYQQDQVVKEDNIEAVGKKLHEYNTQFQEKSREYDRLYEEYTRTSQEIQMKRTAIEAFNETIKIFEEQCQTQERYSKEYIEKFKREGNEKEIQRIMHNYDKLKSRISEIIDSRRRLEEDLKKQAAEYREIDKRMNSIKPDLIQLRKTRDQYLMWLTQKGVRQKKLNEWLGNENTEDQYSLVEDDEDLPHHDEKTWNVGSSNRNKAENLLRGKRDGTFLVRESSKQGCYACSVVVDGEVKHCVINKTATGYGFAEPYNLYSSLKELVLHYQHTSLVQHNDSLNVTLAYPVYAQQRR
T1 sequence (Q8BTI9 whole entry): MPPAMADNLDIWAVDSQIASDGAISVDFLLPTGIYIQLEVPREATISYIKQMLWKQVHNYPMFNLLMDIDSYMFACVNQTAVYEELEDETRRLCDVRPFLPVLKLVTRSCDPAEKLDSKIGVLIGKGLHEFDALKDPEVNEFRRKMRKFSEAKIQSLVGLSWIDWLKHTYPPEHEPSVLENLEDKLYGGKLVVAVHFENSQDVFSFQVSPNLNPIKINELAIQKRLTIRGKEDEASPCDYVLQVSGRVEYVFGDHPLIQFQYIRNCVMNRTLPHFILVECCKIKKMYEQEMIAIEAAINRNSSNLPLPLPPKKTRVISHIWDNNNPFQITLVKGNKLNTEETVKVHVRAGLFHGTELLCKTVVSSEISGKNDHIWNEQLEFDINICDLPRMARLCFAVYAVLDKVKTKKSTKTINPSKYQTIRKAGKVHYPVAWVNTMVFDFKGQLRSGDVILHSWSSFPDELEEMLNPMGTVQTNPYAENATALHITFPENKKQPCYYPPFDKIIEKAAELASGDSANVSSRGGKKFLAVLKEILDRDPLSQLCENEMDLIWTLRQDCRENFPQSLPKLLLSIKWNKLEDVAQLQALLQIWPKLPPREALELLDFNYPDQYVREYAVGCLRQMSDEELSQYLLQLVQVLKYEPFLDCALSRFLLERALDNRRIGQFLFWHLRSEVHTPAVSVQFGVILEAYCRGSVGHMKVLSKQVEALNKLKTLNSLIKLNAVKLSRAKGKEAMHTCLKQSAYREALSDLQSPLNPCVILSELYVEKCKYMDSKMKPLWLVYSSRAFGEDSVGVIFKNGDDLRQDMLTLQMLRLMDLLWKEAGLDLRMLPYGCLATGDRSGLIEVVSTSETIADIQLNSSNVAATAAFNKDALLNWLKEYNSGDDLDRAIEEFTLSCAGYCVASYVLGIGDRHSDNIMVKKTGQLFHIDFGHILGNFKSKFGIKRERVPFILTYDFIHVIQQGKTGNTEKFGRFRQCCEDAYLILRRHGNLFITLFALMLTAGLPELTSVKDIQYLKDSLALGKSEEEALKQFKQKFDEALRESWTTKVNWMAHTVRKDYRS
T1 sequence (P26450 whole entry partner): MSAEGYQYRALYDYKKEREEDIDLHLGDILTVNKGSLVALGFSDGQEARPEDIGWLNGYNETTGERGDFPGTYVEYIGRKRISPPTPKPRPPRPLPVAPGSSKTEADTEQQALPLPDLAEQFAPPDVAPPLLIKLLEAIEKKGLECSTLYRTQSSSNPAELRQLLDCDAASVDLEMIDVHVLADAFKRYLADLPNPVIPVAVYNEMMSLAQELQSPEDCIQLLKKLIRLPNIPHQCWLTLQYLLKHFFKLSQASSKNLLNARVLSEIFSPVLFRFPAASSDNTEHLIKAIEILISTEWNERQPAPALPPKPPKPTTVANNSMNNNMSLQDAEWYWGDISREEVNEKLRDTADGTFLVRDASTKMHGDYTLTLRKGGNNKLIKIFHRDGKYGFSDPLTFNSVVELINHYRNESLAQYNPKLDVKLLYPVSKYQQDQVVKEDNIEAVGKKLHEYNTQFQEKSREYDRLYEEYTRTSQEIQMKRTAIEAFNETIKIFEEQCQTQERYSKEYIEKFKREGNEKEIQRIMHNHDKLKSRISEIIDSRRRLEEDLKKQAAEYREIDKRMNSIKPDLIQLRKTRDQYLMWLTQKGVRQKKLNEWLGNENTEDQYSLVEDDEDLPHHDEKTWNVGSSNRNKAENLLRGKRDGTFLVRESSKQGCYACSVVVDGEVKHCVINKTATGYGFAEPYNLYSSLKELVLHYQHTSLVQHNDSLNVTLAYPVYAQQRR

EC50 (PI3Kδ): < 30 nM
IC50 (PI3K beta): 1320 nM
EC50 (IL-2): 9.5 nM
fold increase in AUC0-t as compared to Example 128 of WO 2012/151525 [1]: 48 fold
fold increase in Cmax as compared to Example 128 of WO 2012/151525 [1]: ~16 fold
fold increase in t1/2 as compared to Example 128 of WO 2012/151525 [1]: ~1.6 fold
AUC(0-t) ([1]; plasma): 97.8 µM·h
Cmax ([1]; plasma): 11.4 µM
Tmax ([1]; plasma): 1.83 h
half-life ([1]; plasma): 2.45 h
fraction unbound at 4 h, 1 μM [2]: 0.0276
Compound: COc1ccc(-c2nn([C@@H](C)c3oc4cccc(F)c4c(=O)c3-c3cccc(F)c3)c3ncnc(N)c23)cc1NS(C)(=O)=O [Compound A1, (S)—N-(5-(4-amino-1-(1-(5-fluoro-3-(3-fluorophenyl)-4-oxo-4H-chromen-2-yl)ethyl)-1H-pyrazolo[3,4-d]pyrimidin-3-yl)-2-methoxyphenyl)methanesulfonamide]
